In ChEMBL document CHEMBL5260845, “Flavone-based arylamides as potential anticancers: Design, synthesis and in vitro cell-based/cell-free evaluations” (2020):
Activity calls are given as the source filed them. The calls are words filed in the database; no cut-off is given here.

Tests used:
[1] = test system: SF-295; assay: Antiproliferative activity against human SF-295 cells assessed as cell growth inhibition at 10 uM by SRB assay relative to control; type: functional
[2] = test system: SNB-75; assay: Antiproliferative activity against human SNB-75 cells assessed as cell growth inhibition at 10 uM by SRB assay relative to control; type: functional
[3] = test system: CCRF-CEM; assay: Antiproliferative activity against human CCRF-CEM cells assessed as cell growth inhibition at 10 uM by SRB assay; type: functional, cell-based
[4] = test system: HL-60; assay: Antiproliferative activity against human HL-60 cells assessed as cell growth inhibition at 10 uM by SRB assay; type: functional, cell-based
[5] = test system: K562; assay: Antiproliferative activity against human K562 cells assessed as cell growth inhibition at 10 uM by SRB assay; type: functional, cell-based
[6] = test system: MOLT-4; assay: Antiproliferative activity against human MOLT-4 cells assessed as cell growth inhibition at 10 uM by SRB assay; type: functional, cell-based
[7] = test system: RPMI-8226; assay: Antiproliferative activity against human RPMI-8226 cells assessed as cell growth inhibition at 10 uM by SRB assay; type: functional, cell-based
[8] = test system: SR; assay: Antiproliferative activity against human SR cells assessed as cell growth inhibition at 10 uM by SRB assay; type: functional, cell-based
[9] = test system: EKVX; assay: Antiproliferative activity against human EKVX cells assessed as cell growth inhibition at 10 uM by SRB assay; type: functional
[10] = test system: HOP-92; assay: Antiproliferative activity against human HOP-92 cells assessed as cell growth inhibition at 10 uM by SRB assay; type: functional, cell-based
[11] = test system: NCI-H226; assay: Antiproliferative activity against human NCI-H226 cells assessed as cell growth inhibition at 10 uM by SRB assay; type: functional
[12] = test system: NCI-H23; assay: Antiproliferative activity against human NCI-H23 cells assessed as cell growth inhibition at 10 uM by SRB assay; type: functional
[13] = test system: NCI-H522; assay: Antiproliferative activity against human NCI-H522 cells assessed as cell growth inhibition at 10 uM by SRB assay; type: functional, cell-based
[14] = test system: SF-295; assay: Antiproliferative activity against human SF-295 cells assessed as cell growth inhibition at 10 uM by SRB assay; type: functional, cell-based
[15] = test system: SK-MEL-2; assay: Antiproliferative activity against human SK-MEL-2 cells assessed as cell growth inhibition at 10 uM by SRB assay relative to control; type: functional; settings: Homo sapiens, SK-MEL-2, dose 10 µM
[16] = test system: UACC-257; assay: Antiproliferative activity against human UACC-257 cells assessed as cell growth inhibition at 10 uM by SRB assay relative to control; type: functional
[17] = test system: UACC-62; assay: Antiproliferative activity against human UACC-62 cells assessed as cell growth inhibition at 10 uM by SRB assay relative to control; type: functional
[18] = test system: UO-31; assay: Antiproliferative activity against human UO-31 cells assessed as inhibition of cell growth at 10 uM by SRB assay relative to control; type: functional
[19] = test system: Hs-578T; assay: Antiproliferative activity against human Hs-578T cells assessed as inhibition of cell growth at 10 uM by SRB assay; type: functional, cell-based
[20] = test system: 786-0; assay: Antiproliferative activity against human 786-0 cells assessed as inhibition of cell growth at 10 uM by SRB assay relative to control; type: functional
[21] = test system: T47D; assay: Antiproliferative activity against estrogen receptor positive human T47D cells assessed as inhibition of cell growth at 10 uM by SRB assay relative to control; type: functional
[22] = Antiproliferative activity against human hematologic cancer cells assessed as cell growth inhibition at 10 uM by SRB assay relative to control; type: functional
[23] = Antiproliferative activity against human colon cancer cells assessed as cell growth inhibition at 10 uM by SRB assay relative to control; type: functional; settings: Colon carcinoma cell
[24] = test system: Prostatic carcinoma cell; assay: Antiproliferative activity against human prostatic carcinoma cells assessed as cell growth inhibition at 10 uM by SRB assay relative to control; type: functional
[25] = test system: CCRF-CEM; assay: Antiproliferative activity against human CCRF-CEM cells assessed as cell growth inhibition at 10 uM by SRB assay relative to control; type: functional
[26] = test system: HL-60; assay: Antiproliferative activity against human HL-60 cells assessed as cell growth inhibition at 10 uM by SRB assay relative to control; type: functional
[27] = test system: K562; assay: Antiproliferative activity against human K562 cells assessed as cell growth inhibition at 10 uM by SRB assay relative to control; type: functional
[28] = test system: MOLT-4; assay: Antiproliferative activity against human MOLT-4 cells assessed as cell growth inhibition at 10 uM by SRB assay relative to control; type: functional
[29] = test system: RPMI-8226; assay: Antiproliferative activity against human RPMI-8226 cells assessed as cell growth inhibition at 10 uM by SRB assay relative to control; type: functional
[30] = test system: SR; assay: Antiproliferative activity against human SR cells assessed as cell growth inhibition at 10 uM by SRB assay relative to control; type: functional
[31] = test system: A549; assay: Antiproliferative activity against human A549 cells assessed as cell growth inhibition at 10 uM by SRB assay; type: functional, cell-based
[32] = test system: HOP-62; assay: Antiproliferative activity against human HOP-62 cells assessed as cell growth inhibition at 10 uM by SRB assay; type: functional, cell-based
[33] = test system: NCI-H322M; assay: Antiproliferative activity against human NCI-H322M cells assessed as cell growth inhibition at 10 uM by SRB assay; type: functional, cell-based
[34] = test system: NCI-H460; assay: Antiproliferative activity against human NCI-H460 cells assessed as cell growth inhibition at 10 uM by SRB assay; type: functional, cell-based
[35] = test system: RXF 393; assay: Antiproliferative activity against human RXF 393 cells assessed as inhibition of cell growth at 10 uM by SRB assay relative to control; type: functional
[36] = test system: SNB-19; assay: Antiproliferative activity against human SNB-19 cells assessed as cell growth inhibition at 10 uM by SRB assay; type: functional, cell-based
[37] = test system: SF-539; assay: Antiproliferative activity against human SF-539 cells assessed as cell growth inhibition at 10 uM by SRB assay; type: functional, cell-based
[38] = test system: U-251; assay: Antiproliferative activity against human U-251 cells assessed as cell growth inhibition at 10 uM by SRB assay; type: functional, cell-based
[39] = test system: SF-268; assay: Antiproliferative activity against human SF-268 cells assessed as cell growth inhibition at 10 uM by SRB assay; type: functional, cell-based
[40] = test system: SNB-75; assay: Antiproliferative activity against human SNB-75 cells assessed as cell growth inhibition at 10 uM by SRB assay; type: functional, cell-based

Row | SMILES | inhibition [3] | inhibition [4] | inhibition [5] | inhibition [6] | inhibition [7] | inhibition [8] | inhibition at 10 µM [9] [%] | inhibition [10] | inhibition at 10 µM [11] [%] | inhibition at 10 µM [12] [%] | inhibition [13] | inhibition [14] | inhibition at 10 µM [15] [%] | inhibition [18] | inhibition [19] | inhibition at 10 µM [25] [%] | inhibition at 10 µM [26] [%] | inhibition at 10 µM [27] [%] | inhibition at 10 µM [28] [%] | inhibition at 10 µM [29] [%] | also measured
1 | Cn1nnc2c(C(N)=O)ncn2c1=O [TEMOZOLOMIDE] |  |  |  |  |  |  |  |  |  |  |  |  |  |  |  |  |  |  |  |  | inhibition at 10 µM [1]: 29.8%; inhibition at 10 µM [2]: 40.8%
2 | COc1cc2oc(-c3cccc(NC(=O)c4ccc(C)cc4)c3)cc(=O)c2c(OC)c1OC | Active | Active | Active | Active | Active | Active | < 50 | Active | < 50 | < 50 | Active | Active | ≤ 46 | Active | Active |  |  |  |  |  | inhibition at 10 µM [16]: 56.1%; inhibition at 10 µM [17]: 50.8%
3 | CNC(=O)c1cc(Oc2ccc(NC(=O)Nc3ccc(Cl)c(C(F)(F)F)c3)cc2)ccn1 [SORAFENIB] |  |  |  |  |  |  |  |  |  |  |  |  |  |  |  |  |  |  |  |  | inhibition at 10 µM [20]: 84.5%
4 | COc1cc2oc(-c3cccc(NC(=O)c4cccc(Br)c4)c3)cc(=O)c2c(OC)c1OC | Active | Active | Active | Active | Active | Active | < 50 | Active | < 50 | < 50 | Active | Active | ≤ 46 | Active | Active |  |  |  |  |  | inhibition at 10 µM [21]: 72.3%; inhibition at 10 µM [22]: > 50%; inhibition at 10 µM [23]: > 50%; inhibition at 10 µM [24]: > 50%
5 | COc1cc2oc(-c3ccc(NC(=O)c4ccc(C(F)(F)F)cc4)cc3)cc(=O)c2c(OC)c1OC |  |  |  |  |  |  | < 50 | Active | < 50 | < 50 | Active | Active |  | Active | Active | ≤ 42.6 | ≤ 42.6 | ≤ 42.6 | ≤ 42.6 | ≤ 42.6 | inhibition at 10 µM [30]: ≤ 42.6%
6 | COc1cc2oc(-c3ccc(NC(=O)c4ccc(F)cc4)cc3)cc(=O)c2c(OC)c1OC |  |  |  |  |  |  | < 50 | Active | < 50 | < 50 | Active | Active |  | Active | Active | ≤ 42.6 | ≤ 42.6 | ≤ 42.6 | ≤ 42.6 | ≤ 42.6 | inhibition at 10 µM [30]: ≤ 42.6%
7 | COc1cc2oc(-c3ccc(NC(=O)c4ccc(Cl)cc4)cc3)cc(=O)c2c(OC)c1OC |  |  |  |  |  |  | < 50 | Active | < 50 | < 50 | Active | Active |  | Active | Active | ≤ 42.6 | ≤ 42.6 | ≤ 42.6 | ≤ 42.6 | ≤ 42.6 | inhibition at 10 µM [30]: ≤ 42.6%
8 | COc1cc2oc(-c3cccc(C(=O)Nc4ccc(Br)cc4)c3)cc(=O)c2c(OC)c1OC | Active | Active | Active | Active | Active | Active |  | Active |  |  | Active |  |  |  |  |  |  |  |  |  | inhibition [31]: Active; inhibition [9]: Active; inhibition [32]: Active; inhibition [11]: Active; inhibition [12]: Active; inhibition [33]: Active; inhibition [34]: Active; inhibition [35]: Active
9 | COc1cc2oc(-c3cccc(NC(=O)c4ccc(F)cc4)c3)cc(=O)c2c(OC)c1OC | Active | Active | Active | Active | Active | Active | < 50 | Active | < 50 | < 50 | Active | Active | ≤ 46 | Active | Active |  |  |  |  |  | inhibition at 10 µM [21]: 51.3%
10 | COc1cc2oc(-c3ccc(NC(=O)c4ccc(C)cc4)cc3)cc(=O)c2c(OC)c1OC |  |  |  |  |  |  | < 50 | Active | < 50 | < 50 | Active | Active | ≤ 46 | Active | Active | ≤ 42.6 | ≤ 42.6 | ≤ 42.6 | ≤ 42.6 | ≤ 42.6 | inhibition at 10 µM [30]: ≤ 42.6%
11 | COc1cc2oc(-c3ccc(NC(=O)c4cccc(Br)c4)cc3)cc(=O)c2c(O)c1OC |  |  |  |  |  |  |  |  |  |  |  | inactive |  |  |  |  |  |  |  | 82.6 | inhibition [36]: inactive; inhibition [37]: inactive; inhibition [38]: inactive; inhibition [39]: inactive; inhibition [40]: inactive
